Legend:
[1] = target: T1, TYK2 (Homo sapiens, UniProt P29597); assay: HEK-Blue IFNα/β reporter assay (SEAP) for TYK2 pseudokinase inhibition; type: cell-based; details: HEK-Blue IFNα/β cells, 1 ng/mL human recombinant IFNα
Method: (§1) HEK-Blue™ IL-23 and IFNα/β cells with a stably-integrated cytokine receptor and STAT3 or STAT1 express STAT-inducible secreted embryonic alkaline phosphatase (SEAP) reporter gene upon cytokine stimulation. These cells are plated in DMVEM (Gibco) containing 10% heat-inactivated FBS (Gibco) and 100 U/mL PenStrep (Gibco) at 37° C. under […] conditions for 20-22 hours. The cells are then pretreated with serially diluted test compounds for 60 min prior to stimulation with either 10 ng/mL human recombinant IL-23 (Miltenyl Biotech) or 1 ng/mL human recombinant IFNα (InvivoGen) for 22-24 hours for IL-23 or 16-18 h for IFNα. SEAP induction is measured using the QUANTI Blue™ Solution (InvivoGen) according to the manufacturer's instructions. Inhibition data are calculated by comparison to no inhibitor control wells for 000 inhibition and non-stimulated control wells for 10000 inhibition. Dose response curves are generated to determine the concentration required to inhibit 5000 of cellular response (IC50) as derived by non-linear regression analysis.

[2] = target: T1, TYK2; assay: HEK-Blue IL-23 reporter assay (SEAP) for TYK2 pseudokinase inhibition; type: cell-based; design: HEK-Blue™ IL-23 and IFNα/β cells with a stably-integrated cytokine receptor and STAT3 or STAT1; host or cells: HEK-Blue IL-23 / HEK-Blue IFNα/β cells (HEK293 background); details: HEK-Blue IL-23 cells, 10 ng/mL human recombinant IL-23, SEAP reporter; read-out: IL23 IC50
Method: as §1

T1 sequence (P29597 whole entry): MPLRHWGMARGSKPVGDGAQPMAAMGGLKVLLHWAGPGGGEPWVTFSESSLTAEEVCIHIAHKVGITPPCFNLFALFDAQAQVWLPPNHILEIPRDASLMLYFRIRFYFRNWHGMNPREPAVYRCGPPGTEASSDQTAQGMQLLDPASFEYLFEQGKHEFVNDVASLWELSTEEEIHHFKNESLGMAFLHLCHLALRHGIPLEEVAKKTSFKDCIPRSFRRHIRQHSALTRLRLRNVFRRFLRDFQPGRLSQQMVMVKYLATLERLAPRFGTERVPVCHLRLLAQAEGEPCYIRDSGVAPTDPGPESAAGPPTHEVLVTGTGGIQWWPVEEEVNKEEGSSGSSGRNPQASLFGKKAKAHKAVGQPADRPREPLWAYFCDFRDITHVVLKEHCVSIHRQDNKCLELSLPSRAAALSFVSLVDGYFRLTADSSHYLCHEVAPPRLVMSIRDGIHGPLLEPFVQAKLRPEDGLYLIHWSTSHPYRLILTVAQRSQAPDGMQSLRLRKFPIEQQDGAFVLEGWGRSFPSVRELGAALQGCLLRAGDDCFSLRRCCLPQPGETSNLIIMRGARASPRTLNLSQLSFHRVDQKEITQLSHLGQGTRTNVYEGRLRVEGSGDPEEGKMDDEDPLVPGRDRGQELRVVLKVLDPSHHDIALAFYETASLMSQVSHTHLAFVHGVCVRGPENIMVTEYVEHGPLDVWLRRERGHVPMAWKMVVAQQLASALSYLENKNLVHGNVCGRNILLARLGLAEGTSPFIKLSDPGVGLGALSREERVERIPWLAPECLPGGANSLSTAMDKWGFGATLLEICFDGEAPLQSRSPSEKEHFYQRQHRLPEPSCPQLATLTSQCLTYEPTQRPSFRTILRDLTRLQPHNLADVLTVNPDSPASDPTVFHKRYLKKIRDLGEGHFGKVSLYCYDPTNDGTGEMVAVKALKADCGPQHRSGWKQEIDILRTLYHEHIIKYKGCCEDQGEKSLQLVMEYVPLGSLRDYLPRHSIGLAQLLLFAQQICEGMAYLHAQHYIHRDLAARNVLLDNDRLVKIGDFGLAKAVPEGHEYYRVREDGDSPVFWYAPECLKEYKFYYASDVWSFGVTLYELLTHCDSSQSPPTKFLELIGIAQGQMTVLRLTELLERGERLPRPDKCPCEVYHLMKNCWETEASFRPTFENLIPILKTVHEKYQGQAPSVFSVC

Row | Structure (SMILES) | IC50 [1] | IC50 [2]
1 | COc1ccc(-n2[nH]c(=O)c3cnc(NC(=O)C4CC4)cc32)cc1 [Compound I-19, N-(1-(4-methoxyphenyl)-3-oxo-2,3-dihydro-1H-pyrazolo[4,3-c]pyridin-6-yl)cyclopropanecarboxamide] | 10 to 30 µM | < 10 µM
2 | Cc1cc(Nc2cc3c(cn2)c(=O)[nH]n3-c2ccc(C(F)(F)F)cc2)nc(C)n1 [Compound I-66, 6-((2,6-dimethylpyrimidin-4-yl)amino)-1-(4-(trifluoromethyl)phenyl)-1,2-dihydro-3H-pyrazolo[4,3-c]pyridin-3-one] | < 10 µM | < 10 µM
3 | COc1c(F)cccc1-n1[nH]c(=O)c2cnc(Nc3cc(C)nc(C)n3)cc21 [Compound I-99, 6-((2,6-dimethylpyrimidin-4-yl)amino)-1-(3-fluoro-2-methoxyphenyl)-1,2-dihydro-3H-pyrazolo[4,3-c]pyridin-3-one] | 10 to 30 µM | < 10 µM
4 | COc1cccc(-n2[nH]c(=O)c3cnc(Nc4ccc(C(F)(F)F)cn4)cc32)c1 [Compound I-42, 1-(3-methoxyphenyl)-6-((5-(trifluoromethyl)pyridin-2-yl)amino)-1,2-dihydro-3H-pyrazolo[4,3-c]pyridin-3-one] | < 10 µM | < 10 µM
5 | Cc1cc(Nc2cc3c(cn2)c(=O)[nH]n3-c2cccc(C(F)(F)F)c2)ncc1F [Compound I-29, 6-((5-fluoro-4-methylpyridin-2-yl)amino)-1-(3-(trifluoromethyl)phenyl)-1,2-dihydro-3H-pyrazolo[4,3-c]pyridin-3-one] | < 10 µM | < 10 µM
6 | O=c1[nH]n(C2CCCC2)c2cc(Nc3ccc(F)cn3)ncc12 [Compound I-115, 1-cyclopentyl-6-((5-fluoropyridin-2-yl)amino)-1,2-dihydro-3H-pyrazolo[4,3-c]pyridin-3-one] | < 10 µM | < 10 µM
7 | N#Cc1ccc(-n2[nH]c(=O)c3cnc(Nc4ccc(F)cn4)cc32)cc1 [Compound I-64, 4-(6-((5-fluoropyridin-2-yl)amino)-3-oxo-2,3-dihydro-1H-pyrazolo[4,3-c]pyridin-1-yl)benzonitrile] | < 10 µM | < 10 µM
8 | Cc1cc(Nc2cc3c(cn2)c(=O)[nH]n3-c2cccnc2)nc(C)n1 [Compound I-30, 6-((2,6-dimethylpyrimidin-4-yl)amino)-1-(pyridin-3-yl)-1,2-dihydro-3H-pyrazolo[4,3-c]pyridin-3-one] | 10 to 30 µM | < 10 µM
9 | O=c1[nH]n(-c2ccc(Cl)c(Cl)c2)c2cc(Nc3ccc(F)cn3)ncc12 [Compound I-86, 1-(3,4-dichlorophenyl)-6-((5-fluoropyridin-2-yl)amino)-1,2-dihydro-3H-pyrazolo[4,3-c]pyridin-3-one] | > 90 µM | > 90 µM
10 | CS(=O)(=O)c1ccc(-n2[nH]c(=O)c3cnc(Nc4ccc(F)cn4)cc32)cc1 [Compound I-62, 6-((5-fluoropyridin-2-yl)amino)-1-(4-(methylsulfonyl)phenyl)-1,2-dihydro-3H-pyrazolo[4,3-c]pyridin-3-one] | 30 to 90 µM | < 10 µM
11 | Cc1cc(Nc2cc3c(cn2)c(=O)[nH]n3-c2ccccc2C)nc(C)n1 [Compound I-105, 6-((2,6-dimethylpyrimidin-4-yl)amino)-1-(o-tolyl)-1,2-dihydro-3H-pyrazolo[4,3-c]pyridin-3-one] | < 10 µM | < 10 µM
12 | O=C(Nc1cc2c(cn1)c(=O)[nH]n2-c1ccccc1)c1cccnc1 [Compound I-10, N-(3-oxo-1-phenyl-2,3-dihydro-1H-pyrazolo[4,3-c]pyridin-6-yl)nicotinamide] |  | > 90 µM
13 | COc1cccc(-n2[nH]c(=O)c3cnc(Nc4cc(C(F)(F)F)ccn4)cc32)c1 [Compound I-43, 1-(3-methoxyphenyl)-6-((4-(trifluoromethyl)pyridin-2-yl)amino)-1,2-dihydro-3H-pyrazolo[4,3-c]pyridin-3-one] |  | > 90 µM
14 | COc1cc(-n2[nH]c(=O)c3cnc(Nc4ccc(F)cn4)cc32)ccc1C#N [Compound I-81, 4-(6-((5-fluoropyridin-2-yl)amino)-3-oxo-2,3-dihydro-1H-pyrazolo[4,3-c]pyridin-1-yl)-2-methoxybenzonitrile] | > 90 µM | < 10 µM
15 | Cc1cc(Nc2cc3c(cn2)c(=O)[nH]n3-c2ccccc2F)nc(C)n1 [Compound I-111, 6-((2,6-dimethylpyrimidin-4-yl)amino)-1-(2-fluorophenyl)-1,2-dihydro-3H-pyrazolo[4,3-c]pyridin-3-one] | < 10 µM | < 10 µM
16 | CC(C)N1CCN(c2cc3c(cn2)c(=O)[nH]n3-c2ccccc2)C1=O [Compound I-13, 6-(3-isopropyl-2-oxoimidazolidin-1-yl)-1-phenyl-1,2-dihydro-3H-pyrazolo[4,3-c]pyridin-3-one] |  | 30 to 90 µM
17 | CS(=O)(=O)c1ccccc1-n1[nH]c(=O)c2cnc(Nc3ccc(F)cn3)cc21 [Compound I-26, 6-((5-fluoropyridin-2-yl)amino)-1-(2-(methylsulfonyl)phenyl)-1,2-dihydro-3H-pyrazolo[4,3-c]pyridin-3-one] | < 10 µM | < 10 µM
18 | CNC(=O)Nc1cc2c(cn1)c(=O)[nH]n2-c1ccccc1 [Compound I-125, 1-methyl-3-(3-oxo-1-phenyl-2,3-dihydro-1H-pyrazolo[4,3-c]pyridin-6-yl)urea] | 30 to 90 µM | < 10 µM
19 | Cc1cc(Nc2cc3c(cn2)c(=O)[nH]n3-c2ccc(S(C)(=O)=O)cc2)nc(C)n1 [Compound I-32, 6-((2,6-dimethylpyrimidin-4-yl)amino)-1-(4-(methylsulfonyl)phenyl)-1,2-dihydro-3H-pyrazolo[4,3-c]pyridin-3-one] | > 90 µM | 10 to 30 µM
20 | O=c1[nH]n(-c2cccc(OC(F)(F)F)c2)c2cc(Nc3ccc(F)cn3)ncc12 [Compound I-56, 6-((5-fluoropyridin-2-yl)amino)-1-(3-(trifluoromethoxy)phenyl)-1,2-dihydro-3H-pyrazolo[4,3-c]pyridin-3-one] | 10 to 30 µM | < 10 µM
21 | Cc1cc(Nc2cc3c(cn2)c(=O)[nH]n3-c2cc(Cl)cc(Cl)c2)nc(C)n1 [Compound I-96, 1-(3,5-dichlorophenyl)-6-((2,6-dimethylpyrimidin-4-yl)amino)-1,2-dihydro-3H-pyrazolo[4,3-c]pyridin-3-one] | > 90 µM | < 10 µM
22 | Cc1cc(Nc2cc3c(cn2)c(=O)[nH]n3-c2ccc(C#N)cc2)nc(C)n1 [Compound I-63, 4-(6-((2,6-dimethylpyrimidin-4-yl)amino)-3-oxo-2,3-dihydro-1H-pyrazolo[4,3-c]pyridin-1-yl)benzonitrile] | < 10 µM | < 10 µM
23 | COc1cc(-n2[nH]c(=O)c3cnc(Nc4cc(C)nc(C)n4)cc32)ccc1Cl [Compound I-78, 1-(4-chloro-3-methoxyphenyl)-6-((2,6-dimethylpyrimidin-4-yl)amino)-1,2-dihydro-3H-pyrazolo[4,3-c]pyridin-3-one] | > 90 µM | > 90 µM
24 | COc1cccc(-n2[nH]c(=O)c3cnc(Nc4ccc(C#N)cn4)cc32)c1 [Compound I-40, 6-((1-(3-methoxyphenyl)-3-oxo-2,3-dihydro-1H-pyrazolo[4,3-c]pyridin-6-yl)amino)nicotinonitrile] | < 10 µM | < 10 µM
25 | Cc1cc(Nc2cc3c(cn2)c(=O)[nH]n3-c2ccc(C#N)c(Cl)c2)nc(C)n1 [Compound I-87, 2-chloro-4-(6-((2,6-dimethylpyrimidin-4-yl)amino)-3-oxo-2,3-dihydro-1H-pyrazolo[4,3-c]pyridin-1-yl)benzonitrile] | > 90 µM | < 10 µM
26 | COc1cccc(-n2[nH]c(=O)c3cnc(NC(=O)C4(O)CC4)cc32)c1 [Compound I-124, 1-hydroxy-N-(1-(3-methoxyphenyl)-3-oxo-2,3-dihydro-1H-pyrazolo[4,3-c]pyridin-6-yl)cyclopropane-1-carboxamide] |  | < 10 µM
27 | Cc1cc(Nc2cc3c(cn2)c(=O)[nH]n3-c2cccc(S(C)(=O)=O)c2)nc(C)n1 [Compound I-27, 6-((2,6-dimethylpyrimidin-4-yl)amino)-1-(3-(methylsulfonyl)phenyl)-1,2-dihydro-3H-pyrazolo[4,3-c]pyridin-3-one] |  | > 90 µM
28 | Cc1cc(Nc2cc3c(cn2)c(=O)[nH]n3-c2ccc(C(N)=O)cc2)nc(C)n1 [Compound I-123, 4-(6-((2,6-dimethylpyrimidin-4-yl)amino)-3-oxo-2,3-dihydro-1H-pyrazolo[4,3-c]pyridin-1-yl)benzamide] |  | > 90 µM
29 | O=c1[nH]n(-c2cc(Cl)cc(Cl)c2)c2cc(Nc3ccc(F)cn3)ncc12 [Compound I-97, 1-(3,5-dichlorophenyl)-6-((5-fluoropyridin-2-yl)amino)-1,2-dihydro-3H-pyrazolo[4,3-c]pyridin-3-one] |  | > 90 µM
30 | Cc1cc(Nc2cc3c(cn2)c(=O)[nH]n3-c2cccc(C(N)=O)c2)nc(C)n1 [Compound I-21, 3-(6-((2,6-dimethylpyrimidin-4-yl)amino)-3-oxo-2,3-dihydro-1H-pyrazolo[4,3-c]pyridin-1-yl)benzamide] |  | > 90 µM

Reference: patent US12668594B2, “TYK2 inhibitors and uses thereof” (Sudo Biosciences Limited, priority 2020, dated 2026)
